Data set [1] addresses T1, IGF-1 receptor (Homo sapiens, UniProt P08069). As to the kind of experiment: IGF-1 receptor phosphorylation assay, receptor transfected HEK293 cells. Details: expressed in transfected cells; host or cells: HEK293. The class given is cell-based. The protocol:
Color development was stopped 5 min later by adding 0.05 ml 1 N HCl. Absorbance at 450 nm was measured on Titertek Multiscan MCC340 (ThermoFisher, Pittsburgh, Pa.).

In another data set the target is insulin receptor (Homo sapiens, UniProt P06213). As to the kind of experiment: Insulin receptor binding assay (competition, scintillation proximity). Further details: expressed in transfected cells; plasma membrane fragments.
Data set [2] deals with T1, IGF-1 receptor. Briefly: IGF-1 receptor binding assay (competition, scintillation proximity). Further details: expressed in transfected cells; plasma membrane fragments. The note with it: Table 9. On the technique in general: In a scintillation proximity assay essentially only radioactivity close to the scintillant gives light.
Data set [3] can be described thus: Dipeptide half life on IGF1 (p-NH2-F)A19 analogs in PBS. The class given is physicochemical. As to conditions: buffer. How it is done: Accordingly, the IGF1A chain alone was determined to be a good model for the study of pro-drug half life on IGF1 B:A (Y^B16L^B17) analog peptides. […] For simplicity, prodrug half lives were determined using only the IGF1 A chain in the absence of the B chain. The half lives of each propeptide was determined as described in Example 5.

Data set [4] has as its target T2, insulin subtype A receptor (IR-A) (Homo sapiens, UniProt P06213).
T2 construct: expressed in transfected cells; host or cells: HEK293
As to the kind of experiment: Insulin subtype A receptor phosphorylation, receptor transfected HEK293 cells. The note with it: for IC50: read-out: Phosphorylation at Insulin Receptor Subtype A (IC50), Table 16A. Format: cell-based. The protocol:
(§1) Color development was stopped 5 min later by adding 0.05 ml 1 N HCl. Absorbance at 450 nm was measured on Titertek Multiscan MCC340 (ThermoFisher, Pittsburgh, Pa.). […]

For data set [5], the target named is insulin subtype B receptor (IR-B) (Homo sapiens, UniProt P06213). As to the kind of experiment: Insulin subtype B receptor phosphorylation, receptor transfected HEK293 cells. Format: cell-based. Further details: expressed in transfected cells; host or cells: HEK293. The note with it: read-out: Phosphorylation at Insulin Receptor Subtype B (IC50); Table 16B. The protocol:
as §1

Read-outs that look alike come from different tables or passages of the source. Where a SMILES comes first, the peptide text is derived from it. Side-chain parts run from the residue outwards. [ ]: non-standard residue; d: D form. The star is where a group is joined. Phe(4-NH2) = Nc1ccc(C[C@H](N)C(=O)O)cc1; Isobutyryl(2-OH) = CC(C)(O)C(=O)*

T1 sequence (P08069 31-736 limits assumed): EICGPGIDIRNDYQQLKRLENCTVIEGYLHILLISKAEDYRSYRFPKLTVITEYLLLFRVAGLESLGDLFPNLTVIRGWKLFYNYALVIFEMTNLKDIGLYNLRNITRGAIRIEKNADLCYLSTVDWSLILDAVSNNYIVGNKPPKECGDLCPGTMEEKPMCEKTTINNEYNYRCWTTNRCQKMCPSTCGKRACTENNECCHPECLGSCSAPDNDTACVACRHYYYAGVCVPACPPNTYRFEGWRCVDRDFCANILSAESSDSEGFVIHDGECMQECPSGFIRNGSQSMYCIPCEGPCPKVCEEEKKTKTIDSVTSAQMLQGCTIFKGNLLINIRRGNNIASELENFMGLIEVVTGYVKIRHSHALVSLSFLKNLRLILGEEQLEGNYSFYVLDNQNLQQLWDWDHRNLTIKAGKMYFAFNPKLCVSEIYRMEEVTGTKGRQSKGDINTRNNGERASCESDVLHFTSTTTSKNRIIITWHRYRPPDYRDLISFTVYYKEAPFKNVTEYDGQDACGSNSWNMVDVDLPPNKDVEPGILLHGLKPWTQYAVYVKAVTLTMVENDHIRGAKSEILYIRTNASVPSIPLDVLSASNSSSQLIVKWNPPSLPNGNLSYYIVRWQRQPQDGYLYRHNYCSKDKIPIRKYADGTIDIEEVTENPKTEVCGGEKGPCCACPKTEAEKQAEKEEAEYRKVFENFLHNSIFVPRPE
T1 sequence (P08069 741-1367 partner limits assumed): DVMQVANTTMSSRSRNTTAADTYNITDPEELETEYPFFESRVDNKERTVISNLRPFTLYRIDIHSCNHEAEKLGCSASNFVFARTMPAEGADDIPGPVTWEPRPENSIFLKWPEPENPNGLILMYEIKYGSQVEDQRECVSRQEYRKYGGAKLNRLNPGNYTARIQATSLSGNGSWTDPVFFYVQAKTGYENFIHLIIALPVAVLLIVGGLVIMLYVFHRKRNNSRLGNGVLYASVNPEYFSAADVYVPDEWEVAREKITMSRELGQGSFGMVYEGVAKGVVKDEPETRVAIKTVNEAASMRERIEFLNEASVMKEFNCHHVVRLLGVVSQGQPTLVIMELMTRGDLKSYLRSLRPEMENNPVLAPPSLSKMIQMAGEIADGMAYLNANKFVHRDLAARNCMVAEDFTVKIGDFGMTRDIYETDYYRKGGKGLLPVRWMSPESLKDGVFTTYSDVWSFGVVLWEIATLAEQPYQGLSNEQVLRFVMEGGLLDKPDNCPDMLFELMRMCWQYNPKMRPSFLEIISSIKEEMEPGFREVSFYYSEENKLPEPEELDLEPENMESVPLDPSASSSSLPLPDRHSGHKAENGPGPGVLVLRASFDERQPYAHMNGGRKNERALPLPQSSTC

Broadly, the EC50 is the concentration needed to bring the measured effect to its halfway point. High values mean weaker potency, low ones greater potency. As for `CC[C@H](C)[C@H](NC(=O)CN)C(=O)N[C@H](C(=O)N[C@@H](CC(=O)O)C(=O)N[C@@H](CCC(=O)O)C(=O)N[C@H]1CSSC[C@@H]2NC(=O)[C@H](CO)NC(=O)[C@H](C)NC(=O)[C@H](Cc3c[nH]cn3)NC(=O)[C@H](CSSC[C@H](NC(=O)[C@H](CC(C)C)NC(=O)[C@H](Cc3c[nH]cn3)NC(=O)[C@H](CCC(=O)O)NC(=O)[C@@H]3CCCN3C(=O)CN)C(=O)NCC(=O)N[C@@H](C)C(=O)N[C@@H](CC(=O)O)C(=O)N[C@@H](CC(C)C)C(=O)N[C@@H](C(C)C)C(=O)N[C@@H](CC(=O)O)C(=O)N[C@@H](C)C(=O)N[C@@H](CC(C)C)C(=O)N[C@@H](Cc3ccc(O)cc3)C(=O)N[C@@H](CC(C)C)C(=O)N[C@@H](C(C)C)C(=O)N[C@H](C(=O)NCC(=O)N[C@@H](CC(=O)O)C(=O)N[C@@H](C)C(=O)NCC(=O)N[C@@H](Cc3ccccc3)C(=O)N[C@@H](Cc3ccc(O)cc3)C(N)=O)CSSC[C@@H](C(=O)N[C@@H](CC(N)=O)C(=O)O)NC(=O)[C@H](Cc3ccc(O)cc3)NC(=O)[C@H](CCSC)NC(=O)[C@H](CCC(=O)O)NC(=O)[C@H](CC(C)C)NC(=O)[C@H](CCCNC(=N)N)NC(=O)[C@H](CCCNC(=N)N)NC(=O)[C@H](CC(C)C)NC(=O)[C@H](CC(=O)O)NC2=O)NC1=O)C(C)C`, at IGF-1 receptor [1], it took 11.3 nM to reach a half-maximal effect (EC50). Moreover, the “IGF-1 Receptor % IGF” value on IGF-1 receptor [1] (Table 10) came out at 7.7%. In addition, the “Insulin Receptor % insulin (in test)” value at insulin receptor (Table 9) is reported as 1171.4%. In addition, on IGF-1 receptor [2], the “IGF-1 Receptor % IGF-1 (in test)” value is 2.3%.

As usually defined, the half-life is the time needed for the level to fall by half in the phase considered. The low end stands for fast loss, the high end for slow loss. In the case of `CC[C@H](C)[C@H](NC(=O)CN)C(=O)N[C@H](C(=O)N[C@@H](CC(=O)O)C(=O)N[C@@H](CCC(=O)O)C(=O)N[C@@H](C)C(=O)N[C@@H](C)C(=O)N[C@@H](Cc1ccccc1)C(=O)N[C@@H](CCCNC(=N)N)C(=O)N[C@@H](CO)C(=O)N[C@@H](C)C(=O)N[C@@H](CC(=O)O)C(=O)N[C@@H](CC(C)C)C(=O)N[C@@H](CCCNC(=N)N)C(=O)N[C@@H](CCCNC(=N)N)C(=O)N[C@@H](CC(C)C)C(=O)N[C@@H](CCC(=O)O)C(=O)N[C@@H](CCSC)C(=O)N[C@@H](Cc1ccc(NC(=O)[C@@H]2CCCN2C(=O)C(C)(C)O)cc1)C(=O)N[C@@H](C)C(=O)N[C@@H](C)C(N)=O)C(C)C` [AiBOH Pro] (H-GIVDEAAFRSADLRRLEM[Phe(4-NH2)]([Pro-Isobutyryl(2-OH)])AA-NH2; N-terminus assumed), the half-life in data set [3] (Half Life (hr)) and in data set [3] (Half Life (hr) PBS) was 6.88 days each time.

For the molecule `CC[C@H](C)[C@H](NC(=O)CN)C(=O)N[C@H](C(=O)N[C@@H](CC(=O)O)C(=O)N[C@@H](CCC(=O)O)C(=O)N[C@H]1CSSC[C@@H]2NC(=O)[C@H](CO)NC(=O)[C@H](CCCNC(=N)N)NC(=O)[C@H](Cc3ccccc3)NC(=O)[C@H](CSSC[C@H](NC(=O)[C@H](CC(C)C)NC(=O)[C@@H](NC(=O)[C@H](CCC(=O)O)NC(=O)[C@@H]3CCCN3C(=O)CN)[C@@H](C)O)C(=O)NCC(=O)N[C@@H](C)C(=O)N[C@@H](CCC(=O)O)C(=O)N[C@@H](CC(C)C)C(=O)N[C@@H](C(C)C)C(=O)N[C@@H](CC(=O)O)C(=O)N[C@@H](C)C(=O)N[C@@H](CC(C)C)C(=O)N[C@@H](Cc3ccc(O)cc3)C(=O)N[C@@H](CC(C)C)C(=O)N[C@@H](C(C)C)C(=O)N[C@H](C(=O)NCC(=O)N[C@@H](CC(=O)O)C(=O)N[C@@H](CCCNC(=N)N)C(=O)NCC(=O)N[C@@H](Cc3ccccc3)C(=O)N[C@@H](Cc3ccc(O)cc3)C(N)=O)CSSC[C@@H](C(=O)N[C@@H](C)C(N)=O)NC(=O)[C@H](Cc3ccc(O)cc3)NC(=O)[C@H](CCSC)NC(=O)[C@H](CCC(=O)O)NC(=O)[C@H](CC(C)C)NC(=O)[C@H](CCCNC(=N)N)NC(=O)[C@H](CCCNC(=N)N)NC(=O)[C@H](CC(C)C)NC(=O)[C@H](CC(=O)O)NC2=O)NC1=O)C(C)C` [IGF-1 A:B (E10Y16L17) DPI], on IGF-1 receptor [2], the “IGF-1 Receptor % IGF-1 (in test)” value turned out to be 3.3%.

On to `CC[C@H](C)[C@H](NC(=O)CN)C(=O)N[C@H](C(=O)N[C@@H](CC(=O)O)C(=O)N[C@@H](CCC(=O)O)C(=O)N[C@H]1CSSC[C@@H]2NC(=O)[C@H](CO)NC(=O)[C@H](CCCNC(=N)N)NC(=O)[C@H](Cc3ccccc3)NC(=O)[C@H](CSSC[C@H](NC(=O)[C@H](CC(C)C)NC(=O)[C@H](Cc3c[nH]cn3)NC(=O)[C@H](CCC(=O)O)NC(=O)[C@@H]3CCCN3C(=O)CN)C(=O)NCC(=O)N[C@@H](C)C(=O)N[C@@H](CC(=O)O)C(=O)N[C@@H](CC(C)C)C(=O)N[C@@H](C(C)C)C(=O)N[C@@H](CC(=O)O)C(=O)N[C@@H](C)C(=O)N[C@@H](CC(C)C)C(=O)N[C@@H](Cc3ccc(O)cc3)C(=O)N[C@@H](CC(C)C)C(=O)N[C@@H](C(C)C)C(=O)N[C@H](C(=O)NCC(=O)N[C@@H](CC(=O)O)C(=O)N[C@@H](CCCNC(=N)N)C(=O)NCC(=O)N[C@@H](Cc3ccccc3)C(=O)N[C@@H](Cc3ccc(O)cc3)C(N)=O)CSSC[C@@H](C(=O)N[C@@H](C)C(N)=O)NC(=O)[C@H](Cc3ccc(O)cc3)NC(=O)[C@H](CCSC)NC(=O)[C@H](CCC(=O)O)NC(=O)[C@H](CC(C)C)NC(=O)[C@H](CCCNC(=N)N)NC(=O)[C@H](CCCNC(=N)N)NC(=O)[C@H](CC(C)C)NC(=O)[C@H](CC(=O)O)NC2=O)NC1=O)C(C)C` [IGF-1 A:B (H5D10Y16L17) DPI], for which the “IGF-1 Receptor % IGF” value on IGF-1 receptor [1] (Table 10) was 7.1%. Moreover, the EC50 on IGF-1 receptor [1] (total phosphorylation, Table 10) turned out to be 12.2 nM. Moreover, on insulin receptor (IGF-1 receptor IC50 over insulin receptor IC50), the Ratio was 29.1. In addition, the “Insulin Receptor % insulin (in test)” value on insulin receptor (Table 9) was 479.0%. Besides, on IGF-1 receptor [2], the “IGF-1 Receptor % IGF-1 (in test)” value stood at 11.2%.

`CC[C@H](C)[C@H](NC(=O)CN)C(=O)N[C@H](C(=O)N[C@@H](CC(=O)O)C(=O)N[C@@H](CCC(=O)O)C(=O)N[C@H]1CSSC[C@@H]2NC(=O)[C@H](CO)NC(=O)[C@H](CCCNC(=N)N)NC(=O)[C@H](Cc3ccccc3)NC(=O)[C@H](CSSC[C@H](NC(=O)[C@H](CC(C)C)NC(=O)[C@@H](NC(=O)[C@H](CCC(=O)O)NC(=O)[C@@H]3CCCN3C(=O)CN)[C@@H](C)O)C(=O)NCC(=O)N[C@@H](C)C(=O)N[C@@H](CCC(=O)O)C(=O)N[C@@H](CC(C)C)C(=O)N[C@@H](C(C)C)C(=O)N[C@@H](CC(=O)O)C(=O)N[C@@H](C)C(=O)N[C@@H](CC(C)C)C(=O)N[C@@H](CCC(N)=O)C(=O)N[C@@H](Cc3ccccc3)C(=O)N[C@@H](C(C)C)C(=O)N[C@H](C(=O)NCC(=O)N[C@@H](CC(=O)O)C(=O)N[C@@H](CCCNC(=N)N)C(=O)NCC(=O)N[C@@H](Cc3ccccc3)C(=O)N[C@@H](Cc3ccc(O)cc3)C(=O)N[C@@H](Cc3ccccc3)C(=O)N[C@@H](CC(N)=O)C(=O)N[C@@H](CCCCN)C(=O)N3CCC[C@H]3C(=O)N[C@H](C(N)=O)[C@@H](C)O)CSSC[C@@H](C(=O)N[C@@H](C)C(N)=O)NC(=O)[C@H](Cc3ccc(O)cc3)NC(=O)[C@H](CCSC)NC(=O)[C@H](CCC(=O)O)NC(=O)[C@H](CC(C)C)NC(=O)[C@H](CCCNC(=N)N)NC(=O)[C@H](CCCNC(=N)N)NC(=O)[C@H](CC(C)C)NC(=O)[C@H](CC(=O)O)NC2=O)NC1=O)C(C)C` [IGF-1 A:B]: at insulin receptor (Table 9), the “Insulin Receptor % insulin (in test)” value stood at 5.8% and the “Insulin Receptor % native insulin activity (0.6 nM)” value was found to be 5.8%.

Broadly, the IC50 is the concentration at which inhibition is half-maximal. “DP20 random: CTP linker sequence randomized; linking peptide PPRPPQSASPPDLSPLSGTPSRPSLS; SEQ ID NO: 69 (listed as Homo sapiens)”: the IC50 in data set [4] was 8.08 nM; in data set [5], 2.46 nM.

B1: DP-20, C^0: DP20 structure with the native proinsulin C peptide as the linking peptide (protein)
chain: GEEEEEKGPEHLCGAHLVDALYLVCGDRGFYRREAEDLQVGQVELGGGPGAGSLQPLALEGSLQRKGIVDECCHRSCDLRRLENYCN
As for B1, the figures for the IC50 in data set [4] and in data set [5] were 84.3 nM and 35.4 nM, respectively.

B2: DP20 P to A: CTP linking peptide wherein the prolines have been replaced with alanine (SEQ ID NO: 70) (protein, listed as Homo sapiens)
chain: GEEEEEKGPEHLCGAHLVDALYLVCGDRGFYSSSSRAAAASLASASRLAGASDTAILAQKGIVDECCHRSCDLRRLENYCN
With B2, in data set [4] (FIGS. 21, 23), the “in vitro phosphorylation activity at the insulin subtype A receptor (result in words)” value was “appreciable activity at the insulin receptor, equivalent to that of native IGF-1”.

B3: DP20, S2A: CTP linking peptide wherein the serines have been replaced with alanine (SEQ ID NO: 80) (protein, listed as Homo sapiens)
chain: GEEEEEKGPEHLCGAHLVDALYLVCGDRGFYAAAARAPPPALPAPARLPGPADTPILPQKGIVDECCHRSCDLRRLENYCN
B3: the IC50 came out at 11.8 nM in data set [4] and 7.44 nM in data set [5].
